A word on the IC50: it is the concentration that inhibits the measured activity by half. As usually defined, the EC50 is the concentration giving half of the maximal effect.

“Also recorded” adds a separate entry of the source.

The target in data set [1] is T1, electric eel acetylcholinesterase (eeAChE) (Electrophorus electricus, UniProt O42275).
T1 construct: purchased Sigma-Aldrich (Steinheim, Germany)
Kind of data set: AChE inhibition, adapted Ellman method. It is filed as biochemical. The conditions noted are these: mean of two independent experiments ± SD, read-out: AChE Inhib IC50. The procedure:
(§1) The enzyme inhibition of electric eel acetylcholinesterase (eeAChE) and equine butyrylcholinesterase (eqBChE) by our compounds was evaluated through an adaptation of Elmman´s method using reagents from Sigma-Aldrich (Steinheim, Germany). Stock solutions of each compound (1 mg) in MeOH (1 mL) were prepared and then working solutions for each ligand were obtained by the corresponding dilution of the stock solutions. A control measurement with 5 replicates (without ligand) and a calibration curve of 5 points with 3 replicates per point was performed. The preparation of each solution involved fixed volumes of 4-(2-hydroxyethyl)-1-piperazine-ethanesulfonic acid (HEPES) and cholinesterase (eeAChE or eqBChE) with different volumes of ligand solution, and it was left to rest for 15 min immediately after adding the cholinesterase. A blank solution containing HEPES and MeOH was also prepared at the same time. […] The slope for each calibration point (absorbance versus reaction time) was determined and the inhibition for each compound was calculated by using the following equation: %Inhibition=100−(vi/v0×100) where vi is the reaction rate (slope) for each point of the calibrate with ligand and v0 is the initial reaction rate (slope) for the control point (without ligand). […] Experiments were performed twice for each compound.

The nature of data set [2]: DPPH free radical scavenging (antioxidant) assay. To be noted: read-out: Antioxidant Activity EC50; DPPH method, mean of three independent experiments. (Loss of DPPH colour is used to gauge radical scavenging.)
Description: The radical scavenging activity (antioxidant capacity) of the herein-developed RIV-IND hybrids was determined by the DPPH method [33]. Working solutions of the compounds in 10% DMSO/MeOH (, HoneywellSeelze, Germany) medium were used to prepare 5 methanolic solutions (5 points, 3 replicates) containing DPPH (Sigma-Aldrich, Steinheim, Germany) and different concentrations of compound up to 3.5 mL total volume. […] The respective antioxidant activity (%AA) was calculated using the following equation: %AA=ADPPH−Aligand/ADPPH×100
The reported results were obtained as the mean values of three independent experiments.
The new RIV-IND compounds were also screened for their radical scavenging activity (EC50), according to the 2,2-diphenyl-1-picrylhydrazyl (DPPH) free radical method.
Data set [3] concerns SH-SY5Y cells. Kind of data set: Neuroprotection against Aβ1-42-induced toxicity, MTT. It is filed as cell-based, human. The conditions noted are these: Aβ1-42 1 µM, 24 h, optimized concentration of each compound. The method, then: (§2) Cell viability, following treatment with the compounds, was determined using the colorimetric MTT (3-(4,5-dimethylthiazol-2-yl)-2,5-diphenyltetrazolium bromide) assay. The tested compounds (5a1-3, 5b1-3, 5c1-3) were dissolved in DMSO to produce stock solutions of 25 mM and stored at −20 °C. A concentration screening was performed for 0.5 µM to 20 µM final concentrations to choose the highest nontoxic concentration. SH-SY5Y human neuroblastoma cell line (ATCC-CRL-2266) was cultured in Dulbecco’s modified Eagle’s medium (DMEM) (Gibco-Invitrogen, Life Technologies Ltd., Waltham, MA, USA) with heat-inactivated fetal calf serum (10%), penicillin (50 U/mL) and streptomycin (50 µg/mL) at 37 °C with 5% CO2. Cells were plated at 0.15 × 10^6 cells/mL one day prior to the start of the experiment. The cells were then incubated with the appropriate concentration of the compounds for 24 h. After the incubation period, the cells were washed once with PBS and incubated with 200 µL MTT (0.5 mg/mL) for 2 h at 37 °C with 5% CO2. During this period, cellular dehydrogenase successfully metabolized MTT into formazan, which was then solubilized using 200 µL of 0.04 M HCl/isopropanol. Absorbance was measured at 570 nm.
To test whether the compounds have a protective effect against toxicity induced by Aβ1-42 or iron/ascorbate, the cells were pre-incubated for 1 h with each compound, followed by the addition of Aβ1-42 or iron/ascorbate and incubation for an additional 24 h. Aβ1-42 (Bachem, Torrance, CA, USA) was prepared in sterile water to produce a stock solution of 443 µM and added to the cells at a final concentration of 1 µM. Ferrous sulfate and L-ascorbic acid (Sigma Chemical Co, St. Louis, MO, USA), prepared in sterile water, were added to the medium together at a final concentration of 5 mM and 2.5 mM, respectively. For this assay, the optimal concentration of each compound was used to prevent cellular demise induced by Aβ1-42 or iron/ascorbate. Compound 5a1 was added to the medium at a 1 µM final concentration; compounds 5a2, 5a3, 5b1, 5b2 and 5c2 were added to the medium at a 2.5 µM final concentration; compounds 5c1 and 5c3 were added to the medium at a 5 µM final concentration; and compound 5b3 was added to the medium at a 10 µM final concentration. […] Controls were employed for each plate using untreated cells and Aβ1-42 or iron/ascorbate only. Cell reduction ability was normalized to the untreated condition. All data are expressed as mean ± SEM of at least three independent experiments performed in duplicate. Statistical analyses were performed for normality assessment using Shapiro–Wilk’s test followed by the Kruskal–Wallis test considering that normality was not verified. Post hoc analysis was performed using uncorrected Dunn’s test. A p value < 0.05 was considered statistically significant.
Figure 4 Neuroprotective effect of RIV-IND compounds against cellular toxicity induced by Aβ1-42 measured by MTT reduction ability on SH-SY5Y cells pretreated with […] for one hour, followed by a 24 h incubation with the optimized concentration of each compound. Results are expressed relatively to untreated cells, with the mean ± standard error of the mean (SEM) derived from three to seven independent experiments. * p < 0.05; ** p < 0.01; *** p < 0.001; **** p < 0.0001 compared to untreated cells. # p < 0.05 compared to Aβ1-42-treated cells. (The dot line indicates the decrease in cellular viability induced by Aβ).

Data set [4] deals with SH-SY5Y cells. Kind of data set: Cell viability dose-response screening, MTT. To be noted: 24 h, screening 0.5 µM to 20 µM. It is filed as cell-based, human. The procedure:
as §2
The new RIV-IND hybrids were tested to determine their protective role in the toxicity induced by either Aβ1-42 peptides or iron/ascorbate. SH-SY5Y cells were incubated with a set of concentrations of each of the compounds and a dose–response curve was constructed to select the highest nontoxic concentration.
Figure 3 Dose–response screening of RIV-IND compounds 5a1-3, 5b1-3 and 5c1-3 measured by MTT reduction ability on SH-SY5Y cells treated with different concentrations of the compounds for 24 h. Results are expressed relatively to untreated cells, with the mean ± standard error of the mean (SEM) derived from three independent experiments. * p < 0.05; ** p < 0.01; *** p < 0.001 compared to untreated cells. (The dot line indicates 100% cellular viability).

A further data set deals with T2, Aβ1-42 (Homo sapiens, UniProt P05067).
T2 construct: purchased Genecust, Boynes, France
T2 sequence (P05067 672-713 limits assumed): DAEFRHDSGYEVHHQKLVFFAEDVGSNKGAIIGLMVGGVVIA
Description: Inhibition of Aβ1-42 self-aggregation, thioflavin T fluorescence. The format is biochemical. To be noted: Cinhibitor = 20 µM, Aβ1-42 40 µM, 37 °C, 24 h, read-out: Aβ42 Self-Aggreg. Inhib. The procedure:
The Aβ peptide (Genecust, Boynes, France) was treated with 1,1,1,3,3,3-hexafluoropropan-2-ol (HFIP, Aldrich, Steinheim, Germany) and dissolved in a CH3CN/Na2CO3 (300 µM)/NaOH (250 µM) ([…], v/v/v) mixture in order to have a stable stock solution of Aβ1-42 with concentration 500 µM.
Solutions of the assayed compounds (0.5 mg/mL) were firstly prepared in 60% (v/v) DMSO/MeOH medium and then diluted in phosphate buffer (0.215 M, pH 8.0) to a concentration of 120 µM. The Aβ1-42 aggregation inhibition assays were performed according to a reported method based on the fluorescence emission of thioflavin T (ThT, Aldrich Steinheim, Germany). Therefore, Aβ1-42 (40 µM) was incubated at 37 °C for 24 h in phosphate buffer and in the presence or absence of each ligand (20 µM). Then, the samples were added to a 96-well plate with 180 µL of 5 µM ThT in 50 mM glycine-NaOH (pH 8.5) buffer. Blank samples were identically prepared for each concentration but in the absence of the peptide. The ThT fluorescence was measured at 445 nm (excitation) and 485 nm (emission). The percent of aggregation inhibition was calculated by the following equation:I% = 100 − (IFi/IF0 × 100), in which IFi and IF0 are the fluorescence intensities, in the presence and the absence of the tested compound, subtracted from the fluorescence intensities due to the respective blanks. The reported values were obtained as the mean ± SEM of two different experiments performed in duplicate.
The inhibitory capacity of the RIV-IND hybrids towards Aβ42 self-aggregation was evaluated in vitro by molecular fluorescence spectroscopy through the thioflavin T (ThT) method. In fact, since there is an increase in the absorbance and emission of ThT when it binds to amyloid fibrils, it is possible to determine the percent of Aβ42 self-aggregation (see Table 1). The assays were performed in the presence of 20 µM of inhibitor to overcome the solubility limitations of some compounds in the phosphate buffer aqueous medium.

Data set [5] has as its target T3, equine butyrylcholinesterase (eqBChE) (Equus caballus, UniProt P81908).
T3 construct: purchased Sigma-Aldrich (Steinheim, Germany)
Description: BChE inhibition, adapted Ellman method. The conditions noted are these: for SI (selectivity index): IC50 (AChE)/IC50 (BChE); for IC50: eqBChE, mean of two independent experiments ± SD, read-out: BChE Inhib IC50. The format is biochemical. The method, then: as §1

T1 sequence (O42275 24-633): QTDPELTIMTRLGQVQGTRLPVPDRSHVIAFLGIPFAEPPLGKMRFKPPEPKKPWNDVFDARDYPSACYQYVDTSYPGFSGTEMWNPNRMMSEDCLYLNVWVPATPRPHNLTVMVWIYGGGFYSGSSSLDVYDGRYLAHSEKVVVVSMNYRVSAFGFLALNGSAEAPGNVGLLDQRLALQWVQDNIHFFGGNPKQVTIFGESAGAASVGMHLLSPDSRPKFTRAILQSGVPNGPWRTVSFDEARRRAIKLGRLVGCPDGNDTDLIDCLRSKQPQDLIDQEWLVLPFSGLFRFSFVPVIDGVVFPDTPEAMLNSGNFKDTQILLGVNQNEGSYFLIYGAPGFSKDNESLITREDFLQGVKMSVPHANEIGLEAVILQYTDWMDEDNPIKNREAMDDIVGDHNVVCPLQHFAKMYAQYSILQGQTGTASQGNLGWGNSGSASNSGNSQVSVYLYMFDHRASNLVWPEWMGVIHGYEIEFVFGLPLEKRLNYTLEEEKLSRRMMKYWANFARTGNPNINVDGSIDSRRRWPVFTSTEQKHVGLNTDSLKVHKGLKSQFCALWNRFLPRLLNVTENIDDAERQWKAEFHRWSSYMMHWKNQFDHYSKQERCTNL
T3 sequence (P81908 whole entry): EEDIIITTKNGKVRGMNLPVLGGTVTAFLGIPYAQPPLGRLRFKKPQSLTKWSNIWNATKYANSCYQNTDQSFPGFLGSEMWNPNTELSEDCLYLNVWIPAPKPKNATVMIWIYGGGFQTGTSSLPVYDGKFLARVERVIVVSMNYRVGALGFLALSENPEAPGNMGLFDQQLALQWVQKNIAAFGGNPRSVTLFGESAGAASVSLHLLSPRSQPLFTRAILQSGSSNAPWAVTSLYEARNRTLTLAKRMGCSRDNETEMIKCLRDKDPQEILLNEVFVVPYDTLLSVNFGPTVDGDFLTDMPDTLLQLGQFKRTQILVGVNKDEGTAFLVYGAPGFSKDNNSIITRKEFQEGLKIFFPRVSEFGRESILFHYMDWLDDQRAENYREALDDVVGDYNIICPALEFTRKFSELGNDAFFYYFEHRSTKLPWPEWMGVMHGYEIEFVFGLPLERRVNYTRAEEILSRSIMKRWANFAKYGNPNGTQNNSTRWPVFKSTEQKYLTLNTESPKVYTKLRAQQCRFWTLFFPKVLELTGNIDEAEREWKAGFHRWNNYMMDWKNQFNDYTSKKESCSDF

For the molecule `CCN(C)C(=O)Oc1cccc(CNC(=O)c2cc3cc(O)ccc3[nH]2)c1` [Compound 5b2, 3-((5-Hydroxy-1H-indole-2-carboxamido)methyl)phenyl-ethyl(methyl)carbamate], the IC50 in data set [1] stood at 80 ± 2 µM. Also, the EC50 in data set [2] worked out at 7.8 ± 0.5 µM. Besides, the “neuroprotective effect against toxicity induced by Aβ1-42” value (shortened to “neuroprotective effect”) in the data set with SH-SY5Y cells [3] is listed as “can prevent the toxicity induced by Aβ1-42 to cells; also recorded: able to rescue Aβ1-42-induced toxicity to levels that were not significantly different from untreated cells; also recorded: able to prevent the toxicity induced by Aβ1-42 to neuroblastoma cells (SH-SY5Y)”. In addition, the highest nontoxic concentration with SH-SY5Y cells [4] worked out at 2.5 µM. For the same molecule, the inhibition at 20 µM at Aβ1-42 came out at 29.4%. Besides, in data set [5], the “SI (selectivity index)” value is on record as 3.0 and the IC50 amounted to 27.1 ± 0.1 µM.
`CCN(C)C(=O)Oc1cccc(CCNC(=O)c2cc3cccc(O)c3[nH]2)c1` [Compound 5c3, 3-(2-(7-Hydroxy-1H-indole-2-carboxamido)ethyl)phenyl ethyl(methyl)carbamate]: the IC50 in data set [1] was 26.8 ± 0.3 µM. Besides, in data set [2], the EC50 was 20.7 ± 0.4 µM. Besides, the “neuroprotective effect” value in the data set on SH-SY5Y cells [3] is recorded as “also present neuroprotection”. This molecule also had a highest nontoxic concentration in the data set on SH-SY5Y cells [4] of 5 µM. In addition, the inhibition at 20 µM on Aβ1-42 was found to be 55.5%. Besides, in data set [5], the “SI (selectivity index)” value was 1.8 and the IC50 worked out at 14.9 ± 0.7 µM.
Consider `CCN(C)C(=O)Oc1cccc(CCNC(=O)c2cc3cc(O)ccc3[nH]2)c1` [Compound 5c2, 3-(2-(5-Hydroxy-1H-indole-2-carboxamido)ethyl)phenyl ethyl(methyl)carbamate], for which the IC50 in data set [1] is 58.6 ± 0.3 µM. Also, the half-maximal effective concentration (EC50) in data set [2] amounted to 8.5 ± 0.6 µM. Besides, in the data set on SH-SY5Y cells [3], the “neuroprotective effect” value is “can prevent the toxicity induced by Aβ1-42 to cells; also recorded: able to rescue Aβ1-42-induced toxicity to levels that were not significantly different from untreated cells; also recorded: able to prevent the toxicity induced by Aβ1-42 to neuroblastoma cells (SH-SY5Y)”. In the data set on SH-SY5Y cells [4], the highest nontoxic concentration is reported as 2.5 µM. The inhibition at 20 µM on Aβ1-42 came to 49.9%. Besides, in data set [5], the “SI (selectivity index)” value was 3.8 and the IC50 was 15.2 ± 0.4 µM.
With `Cc1c(O)c(=O)ccn1C` [Deferiprone, deferiprone, reference compound], the EC50 in data set [2] is 148 ± 3 µM.
`Cc1c(C)c2c(c(C)c1O)CCC(C)(C(=O)O)O2` (stereo not shown) [Trolox, reference compound]: in data set [2], the EC50 was 13.8 ± 0.2 µM.
Consider `CCN(C)C(=O)Oc1cccc(CCNC(=O)c2cc3ccccc3[nH]2)c1` [Compound 5c1, 3-(2-(1H-indole-2-carboxamido)ethyl)phenyl ethylmethylcarbamate], for which the IC50 in data set [1] stood at 40 ± 2 µM. Besides, the EC50 in data set [2] is more than 2000 µM. The same molecule had a highest nontoxic concentration with SH-SY5Y cells [4] of 5 µM. Besides, the inhibition at 20 µM on Aβ1-42 was found to be 25.6%. Besides, in data set [5], the “SI (selectivity index)” value came to 2.8 and the IC50 was found to be 14.5 ± 0.7 µM.
In the case of `CCN(C)C(=O)Oc1cccc(NC(=O)c2cc3cc(O)ccc3[nH]2)c1` [Compound 5a2, 3-(5-Hydroxy-1H-indole-2-carboxamido)phenyl ethyl(methyl)carbamate], in data set [1], the IC50 came to 206 ± 4 µM. In data set [2], the EC50 stood at 8.4 ± 0.2 µM. The highest nontoxic concentration in the data set on SH-SY5Y cells [4] is recorded as 2.5 µM. Besides, the inhibition at 20 µM on Aβ1-42 stood at 25%. In data set [5], the “SI (selectivity index)” value was 64.0 and the IC50 was determined as 3.22 ± 0.02 µM.
Regarding `CCN(C)C(=O)Oc1cccc(NC(=O)c2cc3ccccc3[nH]2)c1` [Compound 5a1], the EC50 in data set [2] was more than 2000 µM. In addition, the highest nontoxic concentration in the data set with SH-SY5Y cells [4] was 1 µM. The inhibition at 20 µM at Aβ1-42 was 26.9%. Further, in data set [5], the “SI (selectivity index)” value worked out at 6.0 and the IC50 was found to be 29.9 ± 0.4 µM.

Source of the values: paper PMC10892719 (Pharmaceutics, 2024).
